US5962502A, “Polyamidic acid derivatives with antigastrin activity, a method for their preparation, and their pharmaceutical use” (priority 1993, dated 1999)
Where “and” joins values, the source holds several entries; their conditions need not be identical. Equal entries are not always repeated.

Experiments:
central CCK-B receptor = molecular target: T1, central CCK-B receptor (Cavia porcellus, UniProt H0VZC5); assay: Inhibition of the binding of [3-H][N-methyl-N-leucine]CCK-8 to guinea-pig cortical membranes; settings: for times more active than the corresponding diastereoisomer at the carbon atom (**): binding, guinea-pig cortex; for IC50: 150 minutes at 25° C.
T1 construct: Cerebral cortices of male white guinea-pigs were thus used; from tissue; host or cells: cerebral cortex membranes of male white guinea-pigs
T1 sequence (H0VZC5 1-426): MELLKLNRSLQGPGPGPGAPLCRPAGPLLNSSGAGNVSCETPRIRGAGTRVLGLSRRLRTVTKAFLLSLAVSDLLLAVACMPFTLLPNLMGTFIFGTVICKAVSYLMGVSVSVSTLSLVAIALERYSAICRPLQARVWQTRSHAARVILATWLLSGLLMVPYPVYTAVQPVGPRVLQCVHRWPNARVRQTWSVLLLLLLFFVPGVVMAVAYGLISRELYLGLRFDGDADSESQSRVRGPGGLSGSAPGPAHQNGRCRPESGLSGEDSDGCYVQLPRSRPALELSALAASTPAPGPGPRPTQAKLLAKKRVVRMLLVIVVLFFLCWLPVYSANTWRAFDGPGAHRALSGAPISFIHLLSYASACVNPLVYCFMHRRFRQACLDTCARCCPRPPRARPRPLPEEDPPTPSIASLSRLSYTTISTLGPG
Method in brief: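 Male guinea-pig cerebral cortex membranes (about 300 mcg protein/ml) incubated with non-sulphated [3-H]-labelled CCK-8 tracer and compound 150 minutes at 25° C. Pellet radioactivity counted by liquid scintillation; nonspecific binding defined with 5.10^-6 M CCK-8.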

[1] = system: acid secretion induced by pentagastrin; assay: Acid secretion induced by pentagastrin in the anaesthetized rat; type: in vivo; settings: for ED50: iv, 1 h, I.V. bolus, pentagastrin 30 mcg/kg/h, read-out: Activity (ID50), inhibition of the acid secretion induced by pentagastrin; for antigastrin activity relative to the diastereoisomer at the carbon atom (**): pentagastrin-induced acid secretion
Method: The activity of the compounds of the invention against gastric secretion performed by means of a mechanism with an antigastrin effect, was examined in vivo in anaesthetized rats with the use of male animals weighing about 200 g. Gastric secretion was stimulated with pentagastrin and Lai's method [Gut 5, (1964), 327-341 ] was used, with slight modification.
After tracheotomy, the oesophagus and duodenum were cannulated. A tepid solution (37° C.) of 0.25 mM NaOH was perfused and was passed through the stomach by means of a peristaltic pump at a constant flow-rate of 1 ml/minute. After stabilization for 20 minutes, the stimulant, dissolved in a physiological solution, was perfused for 120 minutes at a dose of 30 mcg/kg/h, in a volume of 0.95 ml/hour. After perfusion for 60 minutes (the basal stimulation), the product under test was administered intravenously (I.V.) as a bolus and perfusion of the stimulant was continued for a further 60 minutes. The acid secretion was recorded continuously as a function of time.
The activity of the product was evaluated as the percentage reduction of secreted acidity after the administration of the product, in comparison with the basal acidity measured during the first 60 minutes of collection in the presence of pentagastrin alone.
The antagonistic compounds tested were administered in various doses so that an ID50, that is, the dose (in mg/kg I.V.) which could inhibit the effect of pentagastrin by 50%, could be calculated.

CCK-A = molecular target: T2, CCK-A (Cavia porcellus, UniProt Q63931); assay: Anti-CCK-A activity on guinea-pig gall bladder stimulated in vitro by CCK-8; settings: for Ratio I/II (CCK-A IC50 / CCK-B IC50): gall bladder IC50 over gastric mucous cells IC50; for IC50: guinea-pig gall bladder in vitro, CCK-8 10 ng/ml, read-out: CCK-A-antagonistic activity IC50 (I)
T2 construct: A longitudinal strip of guinea-pig gall-bladder was put in a bath for isolated organs; from tissue; host or cells: guinea-pig gall bladder longitudinal strip
T2 sequence (Q63931 1-430): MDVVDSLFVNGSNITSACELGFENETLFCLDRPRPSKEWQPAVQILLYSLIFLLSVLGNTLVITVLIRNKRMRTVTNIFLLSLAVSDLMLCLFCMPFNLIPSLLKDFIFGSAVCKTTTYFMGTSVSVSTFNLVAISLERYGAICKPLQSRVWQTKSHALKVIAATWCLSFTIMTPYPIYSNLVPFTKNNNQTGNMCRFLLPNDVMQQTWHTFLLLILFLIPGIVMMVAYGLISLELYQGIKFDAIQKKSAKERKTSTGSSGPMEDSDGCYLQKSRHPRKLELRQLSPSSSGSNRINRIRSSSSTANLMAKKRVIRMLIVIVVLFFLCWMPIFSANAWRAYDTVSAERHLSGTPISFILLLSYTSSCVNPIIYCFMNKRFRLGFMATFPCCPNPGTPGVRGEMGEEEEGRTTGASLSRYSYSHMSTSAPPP
Method: The experimental model used was guinea-pig gall bladder stimulated in vitro by CCK-8, with the use of lorglumide as the reference standard. A longitudinal strip of guinea-pig gall-bladder was put in a bath for isolated organs in the presence of Krebs buffer at a temperature of 32° C., with continuous oxygenation with an oxygen-CO2 mixture (95-[…]). The isometric contractions were detected by means of a force transducer and recorded.

| SMILES | times more active than the corresponding diastereoisomer at the carbon atom (**) (central CCK-B receptor) | inhibition of the binding of [N-methyl-N-leucine]CCK-8, result in words (central CCK-B receptor; guinea-pig cortical membranes) | IC50 (central CCK-B receptor; guinea-pig cortical membranes) [µM] | ED50 [1] | antigastrin activity relative to the diastereoisomer at the carbon atom (**) [1] | Ratio I/II (CCK-A IC50 / CCK-B IC50) (CCK-A) | IC50 (CCK-A) [µM] |
| --- | --- | --- | --- | --- | --- | --- | --- |
| O=C(CC[C@@H](NC(=O)c1cc(Cl)cc(Cl)c1)C(=O)N1CCC2(CCCC2)CC1)N[C@H](Cc1c[nH]c2ccccc12)C(=O)O [Compound 21] | about 5 times | potent inhibitors | 0.04 | 7.9 mg/kg and 12.6 µmol/kg | almost the same antigastrin activity | 940 | 9.4 |
| O=C(CC[C@@H](NC(=O)c1cc(Cl)cc(Cl)c1)C(=O)N1CCC2(CCCC2)CC1)N[C@H](Cc1ccccc1)C(=O)O [Compound 9, (R,R)-1[(1-carboxy-2-phenylethyl)amino]-1 oxo-5-(8-azaspiro[4.5]decan-8-yl)-4-(3,5-dichloro-benzoylamino)-5-oxopentanoic acid] | about 5 times |  | 0.15 | 12.3 mg/kg and 22.6 µmol/kg | about twice | 108 | 5.4 |
